Patent US20030180295A1, “Angiocidin: a Cys-Ser-Val-Thr-Cys-Gly specific tumor cell adhesion receptor” (Philadelphia Health and Education Corporation, priority 1999, published 2003)

How the values were obtained:
[1] = test system: Human Aortic Endothelial Cells (HAEC); assay: ALAMAR BLUE cell viability assay; format: cell-based; settings: Example 26
[2] = biological target: TSP-1 (Homo sapiens, UniProt P07996); assay: Optical binding of angiocidin fragments to TSP-1 derivatized cuvette; settings: test proteins at 10 nm in PBS buffer
Experimental: This study examines the amino terminal (Met1-Lys132) and carboxy terminal (IIe248-Lys380) portions of angiocidin (SEQ ID NOS: 24 and 25, respectively). The binding of undenatured recombinant angiocidin fragments was compared to full length angiocidin. GST was used as a negative control. Binding was evaluated using an optical binding method that uses a cuvette to which TSP-1 is covalently coupled. A laser beam was used to detect whether the test protein (fragments, angiocidin, or GST) is bound to the TSP-1 derivatized cuvette surface. The cuvette was derivatized with 1 μg of TSP-1. The cuvette surfaces were blocked with a 1% BSA solution to prevent nonspecific binding. The test proteins were added at a concentration of […] in a PBS buffer.

[3] = test system: Lung Human Microvascular Endothelial Cells (HMVEC-L); assay: ALAMAR BLUE cell viability assay; format: cell-based; settings: Example 26
[4] = test system: Bovine Smooth Muscle Cells (BSM); assay: ALAMAR BLUE cell viability assay; format: cell-based; settings: 0 to 37 μg/ml, 24 hours
Experimental: Bovine aortic endothelial cells (BAEC), human umbilical vein endothelial cells (HUVEC), fibroblast cells, A549 human lung carcinoma cells (A549), MDA-MB231 human breast carcinoma cells (MB231), MCF7 human breast carcinoma cells (MCF7) were treated with 37 μg/ml of receptor, or buffer alone, for 24 hours. Viability of the cells was measured using the ALAMAR BLUE™ assay, which measures the capacity of cells to metabolize the ALAMAR BLUE™ dye. The ALAMAR BLUE™ assay (available from Biosource International, Camarillo, Calif.) quantitatively measures the proliferation of cell lines and can establish the relative cytotoxicity of chemical agents. The assay incorporates a fluorometric/colorimetric growth indicator based on detection of metabolic activity. The system incorporates an oxidation-reduction (redox) indicator that both fluoresces and changes color in response to chemical reduction of growth medium resulting from cell growth. […] Data can be collected using either fluorescence-based instrumentation (530-560 nm excitation wavelength and 590 nm emission wavelength) or absorbance-based instrumentation (570 nm and 600 nm).
BAEC and BSM cells were treated with increasing concentrations of angiocidin (0, 0.625, 1.25, 2.5, 5, 15, 26 and 37 μg/ml) for 24 hours. Cell viability was measured using the ALAMAR BLUE Tm assay. […]

[5] = test system: Lewis lung carcinoma; assay: Survival of mice bearing Lewis lung carcinoma (IV injected cells); format: in vivo; settings: 50 μg IV on days 1, 3, 5, 7, 9
Experimental: Ten mice were injected with one million Lewis lung carcinoma tumor cells in an IV injection. After 3 days of incubation, the mice were divided into two groups. One group of five mice were treated with an IV injection of 50 μg of angiocidin in Hepes buffered saline. The control group of five mice was treated with Hepes buffered saline. Mice were treated on days 1, 3, 5, 7, and 9.

[6] = test system: human umbilical vein endothelial cells (HUVEC); assay: ALAMAR BLUE cell viability assay; format: cell-based; settings: 24 hours
Experimental: (§1) Bovine aortic endothelial cells (BAEC), human umbilical vein endothelial cells (HUVEC), fibroblast cells, A549 human lung carcinoma cells (A549), MDA-MB231 human breast carcinoma cells (MB231), MCF7 human breast carcinoma cells (MCF7) were treated with 37 μg/ml of receptor, or buffer alone, for 24 hours. Viability of the cells was measured using the ALAMAR BLUE™ assay, which measures the capacity of cells to metabolize the ALAMAR BLUE™ dye. The ALAMAR BLUE™ assay (available from Biosource International, Camarillo, Calif.) quantitatively measures the proliferation of cell lines and can establish the relative cytotoxicity of chemical agents. The assay incorporates a fluorometric/colorimetric growth indicator based on detection of metabolic activity. The system incorporates an oxidation-reduction (redox) indicator that both fluoresces and changes color in response to chemical reduction of growth medium resulting from cell growth. This causes the redox indicator to change from its oxidized, non-fluorescent, blue form to its reduced, fluorescent, red form. Data can be collected using either fluorescence-based instrumentation (530-560 nm excitation wavelength and 590 nm emission wavelength) or absorbance-based instrumentation (570 nm and 600 nm).
Similarly, the effect of receptor on viability of BAEC cells was compared to mouse Lewis lung carcinoma cells, using the same method.
The effect of angiocidin on HUVEC cell viability was evaluated, and FGF and TSP-1 were added to determine whether they ameliorated the angiocidin effect on cell viability. FGF (Fibroblast Growth Factor) is an endothelial cell mitogen, which promotes cell growth. […] TSP-1 was expected to reverse the inhibition of angiocidin; however, quantities added may have been insufficient to provide the correct molar ratio.

[7] = test system: MDA-MB231 human breast carcinoma cells (MB231); assay: ALAMAR BLUE cell viability assay; format: cell-based; settings: 37 μg/ml, 24 hours
Experimental: as §1

[8] = test system: fibroblast cells; assay: ALAMAR BLUE cell viability assay; format: cell-based; settings: 37 μg/ml, 24 hours
Experimental: as §1

[9] = test system: MCF7 human breast carcinoma cells (MCF7); assay: ALAMAR BLUE cell viability assay; format: cell-based; settings: 37 μg/ml, 24 hours
Experimental: as §1

[10] = test system: A549 human lung carcinoma cells (A549); assay: ALAMAR BLUE cell viability assay; format: cell-based; settings: 37 μg/ml, 24 hours
Experimental: as §1

[11] = test system: BAEC; assay: Adhesion of BAEC to a substrate; format: cell-based, bovine; settings: cells pretreated with 37 μg/ml, 30 minutes
Experimental: This example evaluates the effect of angiocidin on adhesion of BAEC to a substrate. Cells in the treatment group were pretreated with angiocidin (37 μg/ml). Cells in the control group were not pretreated. Cells (50,000) were immediately plated on microtiter wells coated with 2 μg of either fibronectin, TSP-1, or BSA. Fibronectin is a strong extracellular matrix protein that attracts BAEC and serves as a positive control, whereas BSA is not an adhesion protein and serves as a negative control. After 30 minutes non-adherent cells were aspirated, wells washed with PBS, fixed with 2.5% glutaraldehyde, stained with 2% Giemsa, and the number of adherent cells per 1 mm^2 counted.

Sequence of TSP-1 (P07996 19-1170): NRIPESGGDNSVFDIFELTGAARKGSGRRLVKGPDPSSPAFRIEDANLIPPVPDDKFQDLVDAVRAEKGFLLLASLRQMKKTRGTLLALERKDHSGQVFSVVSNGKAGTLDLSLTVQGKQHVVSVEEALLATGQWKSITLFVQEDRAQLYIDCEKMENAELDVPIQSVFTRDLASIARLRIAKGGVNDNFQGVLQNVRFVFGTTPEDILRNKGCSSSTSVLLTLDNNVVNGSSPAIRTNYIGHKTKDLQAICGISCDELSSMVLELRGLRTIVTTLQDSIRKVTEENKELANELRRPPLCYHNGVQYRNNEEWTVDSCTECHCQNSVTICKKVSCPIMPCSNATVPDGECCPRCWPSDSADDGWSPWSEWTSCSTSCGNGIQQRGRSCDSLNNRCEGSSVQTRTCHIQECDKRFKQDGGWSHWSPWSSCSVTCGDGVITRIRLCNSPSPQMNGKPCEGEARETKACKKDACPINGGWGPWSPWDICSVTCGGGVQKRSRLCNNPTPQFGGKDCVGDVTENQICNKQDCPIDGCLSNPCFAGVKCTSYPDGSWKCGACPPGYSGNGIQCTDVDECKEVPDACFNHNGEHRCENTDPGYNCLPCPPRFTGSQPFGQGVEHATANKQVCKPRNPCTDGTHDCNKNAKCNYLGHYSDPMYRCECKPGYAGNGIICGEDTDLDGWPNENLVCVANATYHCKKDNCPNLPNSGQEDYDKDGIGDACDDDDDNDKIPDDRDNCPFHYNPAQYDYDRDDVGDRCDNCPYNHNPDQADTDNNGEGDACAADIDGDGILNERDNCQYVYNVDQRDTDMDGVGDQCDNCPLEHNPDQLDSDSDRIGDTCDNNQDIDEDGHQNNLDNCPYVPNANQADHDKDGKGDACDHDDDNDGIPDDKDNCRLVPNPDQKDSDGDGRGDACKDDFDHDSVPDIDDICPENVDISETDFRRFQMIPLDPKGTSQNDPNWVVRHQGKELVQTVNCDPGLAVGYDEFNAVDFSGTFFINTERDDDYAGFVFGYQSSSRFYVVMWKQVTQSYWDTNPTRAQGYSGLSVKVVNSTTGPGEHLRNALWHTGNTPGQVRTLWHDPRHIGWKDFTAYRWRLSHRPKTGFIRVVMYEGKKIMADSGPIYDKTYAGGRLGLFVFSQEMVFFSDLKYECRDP

Substance: angiocidin: Cys-Ser-Val-Thr-Cys-Gly (SEQ ID NO: 1)-specific thrombospondin (TSP-1) receptor protein; recombinant form of SEQ ID NO: 2 used in the Examples
- cell viability [1]: negative effect on the viability of both cell lines
- binding to TSP-1 derivatized cuvette [2]: show very similar binding at the nano molar range
- cell viability [3]: negative effect on the viability of both cell lines
- cell viability [4]: unaffected
- median survival period [5]: 19 days
- cell viability ([6]; 0 to 37 μg/ml): decreasing their viability
- decrease of cell viability ([6]; 37 μg/ml): 70-80%
- cell viability [7]: No significant difference
- cell viability [8]: No significant difference
- cell viability [9]: No significant difference
- cell viability [10]: No significant difference
- adhesion of BAEC ([11]; TSP-1 coated wells): significantly reduced the adhesion of BAEC to the TSP-1 coated plates
- adhesion of BAEC ([11]; fibronectin coated wells): remained the same
